We go through 27 compounds from patent US10787425B2, “Thiazolidinedione derivative and use thereof” (INDUSTRY-ACADEMIC COOPERATION FOUNDATION CHOSUN UNIVERSITY, priority 2016, dated 2020).

The target of one experiment is 15-PGDH (Homo sapiens (Human), UniProt P15428). Kind of experiment: 15-PGDH inhibitory activity (NADH at 340 nm). It counts as biochemical. Particulars: concentration inhibiting 50% of 15-PGDH activity; purified 15-PGDH, 21 μM PGE2, 0.25 mM NAD+. An outline of the steps: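 GST-purified human 15-PGDH (E. coli BL-21 LysS, 10 μg) with 21 μM PGE2 and 0.25 mM NAD+ in 50 mM Tris-HCl pH 7.5, 0.1 mM DTT. Compound tested at 0.0001–64 μM; NADH formation read by absorbance at 340 nm against a standard curve.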

For another experiment, the system named is A549 cells. Kind of experiment: Measurement of PGE2 concentration in A549 cell medium (ELISA). It counts as cell-based, human. The conditions noted are these: for Increment %: PGE2 concentration versus PBS control, 5 μM, 12 hours; for PGE2 concentration: inhibitor 5 μM, medium collected after 12 hours, ELISA. In short, it runs like this:
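A549 cells in RPMI 1640 with 8% FBS, seeded at 5×10^5 cells/well and grown 24 h at 37° C, 5% CO2; at ~80% confluence treated with 15-PGDH inhibitor at 5 μM in PBS (PBS-only negative control). After 12 h, PGE2 in the medium was measured by ELISA against a standard curve.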
On the technique in general: An ELISA detects its analyte on a solid surface through an enzyme-linked reagent.

Chain of 15-PGDH (P15428 whole entry): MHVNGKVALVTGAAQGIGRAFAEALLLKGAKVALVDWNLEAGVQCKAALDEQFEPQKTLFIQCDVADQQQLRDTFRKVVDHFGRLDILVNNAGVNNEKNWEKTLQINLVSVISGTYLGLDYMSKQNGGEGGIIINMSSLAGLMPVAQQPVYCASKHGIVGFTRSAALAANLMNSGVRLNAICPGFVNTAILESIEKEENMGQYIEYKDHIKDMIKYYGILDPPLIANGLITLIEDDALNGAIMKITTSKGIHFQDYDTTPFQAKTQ

The term IC50 denotes the concentration at which inhibition is half-maximal. The low end stands for higher potency, the high end for lower potency. As to `O=C(CC1CCCC1)Oc1ccc(/C=C2\SC(=O)NC2=O)cc1` [Compound 64, (Z)-4-((2,4-dioxothiazolidin-5-ylidene)methyl)phenyl 2-cyclopentylacetate], on 15-PGDH, the IC50 was found to be 0.0521 µM. In the experiment with A549 cells, the Increment % was found to be 25.34% and the PGE2 concentration came to 199.4576 pg/mL.

As for `O=C(CCC1CCCC1)Oc1ccc(/C=C2\SC(=O)NC2=O)cc1` [Compound 65, (Z)-4-((2,4-dioxothiazolidin-5-ylidene)methyl)phenyl 3-cyclopentylpropanoate], the IC50 against 15-PGDH is 0.0232 µM. For the same compound, in the experiment with A549 cells, the Increment % was determined as 78.97% and the PGE2 concentration amounted to 284.8007 pg/mL.

On 15-PGDH, `O=C1NC(=O)/C(=C/c2ccc(OC(=O)C3CCCCC3)cc2)S1` [Compound 66, (Z)-4-((2,4-dioxothiazolidin-5-ylidene)methyl)phenyl cyclohexanecarboxylate] returned an IC50 of 0.0888 µM. In the experiment with A549 cells, the Increment % is on record as 2.49% and the PGE2 concentration worked out at 132.3901 pg/mL.

`O=C(CC1CCCCC1)Oc1ccc(/C=C2\SC(=O)NC2=O)cc1` [Compound 67, (Z)-4-((2,4-dioxothiazolidin-5-ylidene)methyl)phenyl 2-cyclohexylacetate] registered an IC50 against 15-PGDH of 0.0305 µM. Besides, in the experiment on A549 cells, the Increment % worked out at 8.34% and the PGE2 concentration stood at 139.9468 pg/mL.

With `O=C(CCCC1CCCCC1)Oc1ccc(/C=C2\SC(=O)NC2=O)cc1` [Compound 69, (Z)-4-((2,4-dioxothiazolidin-5-ylidene)methyl)phenyl 4-cyclohexylbutanoate], it took 0.0261 µM to reach half-maximal inhibition against 15-PGDH (IC50). Further, in the experiment on A549 cells, the Increment % is reported as 134.45% and the PGE2 concentration was 302.8477 pg/mL.

With `O=C(CCCCC1CCCCC1)Oc1ccc(/C=C2\SC(=O)NC2=O)cc1` [Compound 70, (Z)-4-((2,4-dioxothiazolidin-5-ylidene)methyl)phenyl 5-cyclohexylpentanoate], the half-inhibitory concentration (IC50) on 15-PGDH stood at 0.0504 µM. Besides, in the experiment on A549 cells, the Increment % came to 69.97% and the PGE2 concentration was 219.5565 pg/mL.

As for `O=C(Cc1ccccc1)Oc1ccc(/C=C2\SC(=O)NC2=O)cc1` [Compound 72, (Z)-4-((2,4-dioxothiazolidin-5-ylidene)methyl)phenyl 2-phenylacetate], on 15-PGDH, the IC50 stood at 0.108 µM. For the same compound, in the experiment on A549 cells, the Increment % was −18.07% and the PGE2 concentration was 105.832 pg/mL.

For `O=C(CCc1ccccc1)Oc1ccc(/C=C2\SC(=O)NC2=O)cc1` [Compound 73, (Z)-4-((2,4-dioxothiazolidin-5-ylidene)methyl)phenyl 3-phenylpropanoate], on 15-PGDH, half-maximal inhibition (IC50) was put at 0.0544 µM. For the same compound, in the experiment on A549 cells, the Increment % was 102.39% and the PGE2 concentration worked out at 261.4347 pg/mL.

Consider `O=C(CCCc1ccccc1)Oc1ccc(/C=C2\SC(=O)NC2=O)cc1` [Compound 74, (Z)-4-((2,4-dioxothiazolidin-5-ylidene)methyl)phenyl 4-phenylbutanoate], for which the IC50 at 15-PGDH was determined as 0.0507 µM. In the experiment on A549 cells, the Increment % is recorded as 27.71% and the PGE2 concentration came to 164.9677 pg/mL.

As for `O=C(CCCCc1ccccc1)Oc1ccc(/C=C2\SC(=O)NC2=O)cc1` [Compound 75, (Z)-4-((2,4-dioxothiazolidin-5-ylidene)methyl)phenyl 5-phenylpentanoate], the IC50 against 15-PGDH was found to be 0.0921 µM. Further, in the experiment on A549 cells, the Increment % turned out to be 23.31% and the PGE2 concentration turned out to be 159.2841 pg/mL.

On 15-PGDH, `O=C1NC(=O)/C(=C/c2cccc(OC(=O)C3CC3)c2Cl)S1` [Compound 76, (Z)-2-chloro-3-((2,4-dioxothiazolidin-5-ylidene)methyl)phenyl cyclopropanecarboxylate] yielded an IC50 of 0.542 µM. In the experiment on A549 cells, the Increment % worked out at 3.34% and the PGE2 concentration was found to be 123.6726 pg/mL.

As for `O=C1NC(=O)/C(=C/c2cccc(OC(=O)C3CCC3)c2Cl)S1` [Compound 77, (Z)-2-chloro-3-((2,4-dioxothiazolidin-5-ylidene)methyl)phenyl cyclobutanecarboxylate], the IC50 against 15-PGDH amounted to 0.482 µM. Also, in the experiment with A549 cells, the Increment % is listed as 56.54% and the PGE2 concentration came to 187.3399 pg/mL.

Take `O=C1NC(=O)/C(=C/c2cccc(OC(=O)C3CCCC3)c2Cl)S1` [Compound 78, (Z)-2-chloro-3-((2,4-dioxothiazolidin-5-ylidene)methyl)phenyl cyclopentanecarboxylate]: on 15-PGDH, the midpoint of inhibition, the IC50, lay at 0.0562 µM. In addition, in the experiment on A549 cells, the Increment % is given as −67.32% and the PGE2 concentration is 39.11 pg/mL.

`O=C(CC1CCCC1)Oc1cccc(/C=C2\SC(=O)NC2=O)c1Cl` [Compound 79, (Z)-2-chloro-3-((2,4-dioxothiazolidin-5-ylidene)methyl)phenyl 2-cyclopentylacetate]: half-maximal inhibition on 15-PGDH (IC50) was put at 0.0428 µM. Besides, in the experiment with A549 cells, the Increment % was −2.34% and the PGE2 concentration was determined as 116.875 pg/mL.

For `O=C(CCC1CCCC1)Oc1cccc(/C=C2\SC(=O)NC2=O)c1Cl` [Compound 80, (Z)-2-chloro-3-((2,4-dioxothiazolidin-5-ylidene)methyl)phenyl 3-cyclopentylpropanoate], 0.0347 µM corresponded to half-maximal inhibition at 15-PGDH (IC50). Moreover, in the experiment on A549 cells, the Increment % was found to be 97.99% and the PGE2 concentration amounted to 236.9453 pg/mL.

For `O=C(CC1CCCCC1)Oc1cccc(/C=C2\SC(=O)NC2=O)c1Cl` [Compound 82, (Z)-2-chloro-3-((2,4-dioxothiazolidin-5-ylidene)methyl)phenyl 2-cyclohexylacetate], it took 0.0327 µM to reach half-maximal inhibition at 15-PGDH (IC50). Besides, in the experiment with A549 cells, the Increment % worked out at 189.97% and the PGE2 concentration stood at 610.1325 pg/mL.

For the compound `O=C(CCCC1CCCCC1)Oc1cccc(/C=C2\SC(=O)NC2=O)c1Cl` [Compound 84, (Z)-2-chloro-3-((2,4-dioxothiazolidin-5-ylidene)methyl)phenyl 4-cyclohexylbutanoate], 0.0225 µM corresponded to half-maximal inhibition against 15-PGDH (IC50). Besides, in the experiment on A549 cells, the Increment % was 16.67% and the PGE2 concentration amounted to 245.488 pg/mL.

In turn, `O=C(CCCCC1CCCCC1)Oc1cccc(/C=C2\SC(=O)NC2=O)c1Cl` [Compound 85, (Z)-2-chloro-3-((2,4-dioxothiazolidin-5-ylidene)methyl)phenyl 5-cyclohexylpentanoate] showed an IC50 at 15-PGDH of 0.0256 µM. For the same compound, in the experiment on A549 cells, the Increment % is −7.79% and the PGE2 concentration amounted to 194.0212 pg/mL.

`O=C(O)c1ccccc1.O=C1NC(=O)/C(=C/c2cccc(OC(=O)c3ccccc3)c2Cl)S1` [Compound 86, (Z)-2-chloro-3-((2,4-dioxothiazolidin-5-ylidene)methyl)phenyl benzoate] returned an IC50 on 15-PGDH of 0.0541 µM. Also, in the experiment with A549 cells, the Increment % is −12.12% and the PGE2 concentration was determined as 184.9103 pg/mL.

As for `O=C(Cc1ccccc1)Oc1cccc(/C=C2\SC(=O)NC2=O)c1Cl` [Compound 87, (Z)-2-chloro-3-((2,4-dioxothiazolidin-5-ylidene)methyl)phenyl 2-phenylacetate], the midpoint of inhibition on 15-PGDH, the IC50, lay at 0.105 µM. In the experiment with A549 cells, the Increment % was found to be 89.77% and the PGE2 concentration was 399.2994 pg/mL.

At 15-PGDH, `O=C(CCc1ccccc1)Oc1cccc(/C=C2\SC(=O)NC2=O)c1Cl` [Compound 88, (Z)-2-chloro-3-((2,4-dioxothiazolidin-5-ylidene)methyl)phenyl 3-phenylpropanoate] showed a half-maximal inhibitory concentration (IC50) of 0.0225 µM. Moreover, in the experiment with A549 cells, the Increment % amounted to 113.47% and the PGE2 concentration is 449.1671 pg/mL.

For the compound `O=C(CCCCc1ccccc1)Oc1cccc(/C=C2\SC(=O)NC2=O)c1Cl` [Compound 90, (Z)-2-chloro-3-((2,4-dioxothiazolidin-5-ylidene)methyl)phenyl 5-phenylpentanoate], on 15-PGDH, the IC50 was 0.046 µM. Also, in the experiment on A549 cells, the Increment % is 98.11% and the PGE2 concentration is 416.8478 pg/mL.

The compound `O=C1NC(=O)/C(=C/c2ccc(OC(=O)C3CC3)cc2Cl)S1` [Compound 91, (Z)-3-chloro-4-((2,4-dioxothiazolidin-5-ylidene)methyl)phenyl cyclopropanecarboxylate] gave an IC50 on 15-PGDH of 1.08 µM. Further, in the experiment with A549 cells, the Increment % was −4.5498% and the PGE2 concentration stood at 106.5773 pg/mL.

In turn, `O=C1NC(=O)/C(=C/c2ccc(OC(=O)C3CCC3)cc2Cl)S1` [Compound 92, (Z)-3-chloro-4-((2,4-dioxothiazolidin-5-ylidene)methyl)phenyl cyclobutanecarboxylate] came in with an IC50 on 15-PGDH of 0.206 µM. In the experiment with A549 cells, the Increment % is listed as −57.6754% and the PGE2 concentration was 47.26 pg/mL.

`O=C1NC(=O)/C(=C/c2ccc(OC(=O)C3CCCC3)cc2Cl)S1` [Compound 93, (Z)-3-chloro-4-((2,4-dioxothiazolidin-5-ylidene)methyl)phenyl cyclopentanecarboxylate] showed an IC50 on 15-PGDH of 0.071 µM. Besides, in the experiment on A549 cells, the Increment % was found to be 2.9785% and the PGE2 concentration turned out to be 114.9832 pg/mL.

On 15-PGDH, `O=C(CC1CCCC1)Oc1ccc(/C=C2\SC(=O)NC2=O)c(Cl)c1` [Compound 94, (Z)-3-chloro-4-((2,4-dioxothiazolidin-5-ylidene)methyl)phenyl 2-cyclopentylacetate] yielded an IC50 of 0.0327 µM. Further, in the experiment with A549 cells, the Increment % is reported as 97.1474% and the PGE2 concentration was determined as 220.1299 pg/mL.

With `O=C1NC(=O)/C(=C/c2ccc(OC(=O)C3CCCCC3)cc2Cl)S1` [Compound 96, (Z)-3-chloro-4-((2,4-dioxothiazolidin-5-ylidene)methyl)phenyl cyclohexanecarboxylate], the IC50 against 15-PGDH came out at 0.0268 µM. Besides, in the experiment with A549 cells, the Increment % turned out to be 8.8874% and the PGE2 concentration was determined as 121.5809 pg/mL.
